Measurements as given in patent US12246010B2, “Formulations of tegavivint and related compounds” (Iterion Therapeutics, Inc., priority 2018, dated 2025).
Values joined by “and” are separate entries in the source; they are usually repeats but may differ in a detail not shown here. Equal values may be shown once.

Assay: Dose-escalating intravenous infusion study in male Beagle dogs (plasma PK)
Type: in vivo
Conditions: dog
Procedure: • Study Animals: Four male non-naïve Beagle dogs were released by Xenometrics for study use on Apr. 20, 2017. The animals were fed Harlan Teklad® Global 25% Protein Certified Dog Diet 2025C ad libitum throughout the study (except for brief periods during in-life procedures when it was • Dosing: Animals were dosed via intravenous (IV) infusion (via jugular vein) for 4 hours (h) [±5 minutes (min)].
[…] All blood samples were collected within 10 minutes of the target time and processed per protocol. Bioanalytical results indicated tegavivint was present in all plasma samples.
The pharmacokinetic parameters were determined for BC-2059 following the final 15 mg/kg infusion of the drug over 4 h.

[1] = 15 mg/kg 4 h IV infusion, individual animals, 15 mg/kg

Compound: C[C@@H]1C[C@H](C)CN(S(=O)(=O)c2ccc3c(c2)C(=NO)c2cc(S(=O)(=O)N4C[C@H](C)C[C@H](C)C4)ccc2C3=NO)C1 [BC2059, tegavivint]
- Plasma BC-2059, 4 h [1]: 1310 ng/mL and 1320 ng/mL and 1150 ng/mL
- Plasma BC-2059, 12 h [1]: 916.0 ng/mL and 1050 ng/mL and 777 ng/mL
- Plasma BC-2059, 24 h [1]: 1120 ng/mL (2×) and 1070 ng/mL
- Plasma BC-2059, 36 h [1]: 834 ng/mL and 931 ng/mL and 708 ng/mL
- Plasma BC-2059, 48 h [1]: 663 ng/mL and 656 ng/mL and 647 ng/mL
- Plasma BC-2059, 72 h [1]: 511 ng/mL and 480 ng/mL and 524 ng/mL
- Plasma BC-2059, 96 h [1]: 360 ng/mL and 310 ng/mL and 364 ng/mL
- Plasma BC-2059, 120 h [1]: 321 ng/mL and 262 ng/mL and 281 ng/mL
- Plasma BC-2059, Predose (prior to Dose 6 (15 mg/kg 4 h IV infusion), individual animals, 15 mg/kg): 257 ng/mL and 404 ng/mL and 309 ng/mL and 284 ng/mL
- concentration at 4 h (male, Beagle, plasma, iv, 15 mg/kg, 15 mg/kg 4 h IV infusion, individual animals, read-out: Plasma BC-2059, 4 h): 1600 ng/mL
- concentration at 12 h (male, Beagle, plasma, iv, 15 mg/kg, 15 mg/kg 4 h IV infusion, individual animals, read-out: Plasma BC-2059, 12 h): 784 ng/mL
- concentration at 24 h (male, Beagle, plasma, iv, 15 mg/kg, 15 mg/kg 4 h IV infusion, individual animals, read-out: Plasma BC-2059, 24 h): 723 ng/mL
- concentration at 36 h (male, Beagle, plasma, iv, 15 mg/kg, 15 mg/kg 4 h IV infusion, individual animals, read-out: Plasma BC-2059, 36 h): 674 ng/mL
- concentration at 48 h (male, Beagle, plasma, iv, 15 mg/kg, 15 mg/kg 4 h IV infusion, individual animals, read-out: Plasma BC-2059, 48 h): 664 ng/mL
- concentration at 72 h (male, Beagle, plasma, iv, 15 mg/kg, 15 mg/kg 4 h IV infusion, individual animals, read-out: Plasma BC-2059, 72 h): 393 ng/mL
- concentration at 96 h (male, Beagle, plasma, iv, 15 mg/kg, 15 mg/kg 4 h IV infusion, individual animals, read-out: Plasma BC-2059, 96 h): 277 ng/mL
- concentration at 120 h (male, Beagle, plasma, iv, 15 mg/kg, 15 mg/kg 4 h IV infusion, individual animals, read-out: Plasma BC-2059, 120 h): 228 ng/mL
- Cmax (male, Beagle, plasma, 15 mg/kg IV over 4 h, mean, n = 4 males): 1340 ± 187 ng/mL
- AUC(0-t) (male, Beagle, plasma, 15 mg/kg IV over 4 h, mean, n = 4 males, read-out: AUC0-120 h): 73500 ng·h/mL
- half-life (male, Beagle, plasma, 15 mg/kg IV over 4 h, mean, n = 4 males, read-out: T½ (converted)): 2.21 days
